Counter-ions that a name gives are not always drawn. Like-named read-outs stand apart in the source and are kept apart here.

Assay [1] deals with T1, hDAT (Homo sapiens, UniProt Q01959). Kind of assay: Inhibition of [^125I]RTI-55 binding to hDAT.
Assay [2] concerns the target T2, 5-HT2A receptor (Homo sapiens, UniProt P28223). Description: cell-based. It counts as cell-based.
The target in assay [3] is T3, hSERT (Homo sapiens, UniProt P31645). Description: Inhibition of [^125I]RTI-55 binding to hSERT.
Assay [4] has as its target T4, 5-HT2B receptor (Homo sapiens, UniProt P41595). Kind of assay: 5-HT2B receptor inositol monophosphate. It counts as cell-based.
For assay [5], the target named is T5, hNET (Homo sapiens, UniProt P23975). Kind of assay: biochemical. It is filed as binding.
Assay [6] deals with T6, human 5-HT1A receptor (Homo sapiens, UniProt P08908).
T6 sequence (P08908 1-422): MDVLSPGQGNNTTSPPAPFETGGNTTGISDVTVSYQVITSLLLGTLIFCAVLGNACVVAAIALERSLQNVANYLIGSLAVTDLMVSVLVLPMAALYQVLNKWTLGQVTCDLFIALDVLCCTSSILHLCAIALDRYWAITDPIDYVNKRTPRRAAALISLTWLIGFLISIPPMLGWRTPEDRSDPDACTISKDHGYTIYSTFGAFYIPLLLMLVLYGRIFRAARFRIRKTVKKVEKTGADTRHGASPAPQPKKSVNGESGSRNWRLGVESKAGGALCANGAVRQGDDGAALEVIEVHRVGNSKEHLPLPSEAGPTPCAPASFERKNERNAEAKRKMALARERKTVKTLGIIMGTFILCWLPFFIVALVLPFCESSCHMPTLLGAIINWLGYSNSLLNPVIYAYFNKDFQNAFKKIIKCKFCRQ
Kind of assay: 5-HT1A receptor [^3H]8-OH-DPAT radioligand binding.

Assay [7] concerns the target T3, hSERT. Kind of assay: Release of preloaded [^3H]5-HT from HEK-hSERT cells. It counts as cell-based. The conditions noted are these: for % maximum release, hSERT [^3H]5-HT: relative to maximum release induced by METH (0.3–1 mM).
The target of assay [8] is T6, human 5-HT1A receptor. Description: 5-HT1A receptor [^35S]GTPγS binding stimulation. It counts as biochemical.
The target in assay [9] is T1, hDAT. Description: Release of preloaded [^3H]DA from HEK-hDAT cells. It is filed as cell-based. The conditions noted are these: for % maximum release, hDAT [^3H]DA: relative to maximum release induced by METH (1–10 μM).
In assay [10] the target is T2, 5-HT2A receptor. Description: biochemical. It counts as binding.
Assay [11] concerns the target T5, hNET. Kind of assay: Release of preloaded [^3H]NE from HEK-hNET cells. The note with it: for % maximum release, hNET [^3H]NE: relative to maximum release induced by METH (0.3–1 μM). It counts as cell-based.
Assay [12] has as its target T5, hNET. Description: cell-based.
Assay [13] deals with T1, hDAT. Kind of assay: Inhibition of [^3H]DA uptake by HEK-hDAT cells. It counts as cell-based.
In assay [14] the target is T3, hSERT. Description: Inhibition of [^3H]5-HT uptake by HEK-hSERT cells. It is filed as cell-based.
In a further assay the target is T7, 5-HT2C receptor (Homo sapiens, UniProt P28335).
T7 sequence (P28335 33-458): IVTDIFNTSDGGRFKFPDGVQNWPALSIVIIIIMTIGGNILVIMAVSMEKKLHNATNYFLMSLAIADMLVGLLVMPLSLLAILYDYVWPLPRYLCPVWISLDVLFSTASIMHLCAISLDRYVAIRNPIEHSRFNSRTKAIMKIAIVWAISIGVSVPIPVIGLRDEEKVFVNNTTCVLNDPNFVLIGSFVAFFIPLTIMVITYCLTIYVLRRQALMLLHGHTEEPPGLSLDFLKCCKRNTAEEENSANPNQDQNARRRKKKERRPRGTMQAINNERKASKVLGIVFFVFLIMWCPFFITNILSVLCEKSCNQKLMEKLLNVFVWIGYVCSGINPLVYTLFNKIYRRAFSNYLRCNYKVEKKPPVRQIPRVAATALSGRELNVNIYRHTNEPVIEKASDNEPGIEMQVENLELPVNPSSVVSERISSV
Kind of assay: cell-based.

Assay [15] has as its target T4, 5-HT2B receptor. Description: 5-HT2B receptor [^3H]5-HT binding.
Where [16] appears, read: normalized to the maximal stimulation by 5-HT.

T5 sequence (P23975 whole entry): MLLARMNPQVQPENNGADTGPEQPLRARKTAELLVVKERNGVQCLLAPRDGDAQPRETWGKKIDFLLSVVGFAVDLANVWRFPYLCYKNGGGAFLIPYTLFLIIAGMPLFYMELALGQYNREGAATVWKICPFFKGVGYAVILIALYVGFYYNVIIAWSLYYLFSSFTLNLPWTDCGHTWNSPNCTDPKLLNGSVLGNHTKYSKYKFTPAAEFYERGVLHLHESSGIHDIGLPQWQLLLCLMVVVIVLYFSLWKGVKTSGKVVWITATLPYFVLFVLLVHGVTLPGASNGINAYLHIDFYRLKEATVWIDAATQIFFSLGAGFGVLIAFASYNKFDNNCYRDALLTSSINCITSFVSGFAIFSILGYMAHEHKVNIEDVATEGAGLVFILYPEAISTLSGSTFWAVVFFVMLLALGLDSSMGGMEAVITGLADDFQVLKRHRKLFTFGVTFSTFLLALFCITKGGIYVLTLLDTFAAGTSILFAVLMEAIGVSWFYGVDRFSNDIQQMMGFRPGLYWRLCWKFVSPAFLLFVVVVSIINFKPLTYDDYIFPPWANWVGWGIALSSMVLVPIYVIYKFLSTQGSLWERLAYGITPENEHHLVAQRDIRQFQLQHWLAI
T4 sequence (P41595 whole entry): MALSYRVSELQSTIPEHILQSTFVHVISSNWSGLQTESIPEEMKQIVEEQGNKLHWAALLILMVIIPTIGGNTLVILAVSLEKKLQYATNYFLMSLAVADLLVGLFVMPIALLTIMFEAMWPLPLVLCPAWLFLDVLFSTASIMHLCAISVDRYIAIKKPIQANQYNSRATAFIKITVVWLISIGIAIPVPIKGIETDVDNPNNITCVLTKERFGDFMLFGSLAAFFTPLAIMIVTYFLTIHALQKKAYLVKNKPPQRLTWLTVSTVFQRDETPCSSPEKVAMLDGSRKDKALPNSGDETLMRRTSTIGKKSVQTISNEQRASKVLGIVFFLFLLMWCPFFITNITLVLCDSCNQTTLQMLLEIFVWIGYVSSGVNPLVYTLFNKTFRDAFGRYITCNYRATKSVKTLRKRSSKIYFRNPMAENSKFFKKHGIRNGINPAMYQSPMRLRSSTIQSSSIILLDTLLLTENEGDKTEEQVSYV
T2 sequence (P28223 whole entry): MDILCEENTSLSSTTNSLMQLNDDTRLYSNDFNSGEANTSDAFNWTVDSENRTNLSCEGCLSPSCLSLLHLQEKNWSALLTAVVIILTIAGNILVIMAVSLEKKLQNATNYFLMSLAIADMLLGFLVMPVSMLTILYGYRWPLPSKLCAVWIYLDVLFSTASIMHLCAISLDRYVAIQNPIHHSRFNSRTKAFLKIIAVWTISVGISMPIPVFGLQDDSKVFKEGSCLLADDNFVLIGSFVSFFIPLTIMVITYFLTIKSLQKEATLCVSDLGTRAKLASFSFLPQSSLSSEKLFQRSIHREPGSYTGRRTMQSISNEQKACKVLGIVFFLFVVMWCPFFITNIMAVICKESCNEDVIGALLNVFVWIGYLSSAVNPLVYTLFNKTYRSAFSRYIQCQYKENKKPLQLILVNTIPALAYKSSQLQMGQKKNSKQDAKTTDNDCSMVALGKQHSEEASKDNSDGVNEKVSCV
T1 sequence (Q01959 whole entry): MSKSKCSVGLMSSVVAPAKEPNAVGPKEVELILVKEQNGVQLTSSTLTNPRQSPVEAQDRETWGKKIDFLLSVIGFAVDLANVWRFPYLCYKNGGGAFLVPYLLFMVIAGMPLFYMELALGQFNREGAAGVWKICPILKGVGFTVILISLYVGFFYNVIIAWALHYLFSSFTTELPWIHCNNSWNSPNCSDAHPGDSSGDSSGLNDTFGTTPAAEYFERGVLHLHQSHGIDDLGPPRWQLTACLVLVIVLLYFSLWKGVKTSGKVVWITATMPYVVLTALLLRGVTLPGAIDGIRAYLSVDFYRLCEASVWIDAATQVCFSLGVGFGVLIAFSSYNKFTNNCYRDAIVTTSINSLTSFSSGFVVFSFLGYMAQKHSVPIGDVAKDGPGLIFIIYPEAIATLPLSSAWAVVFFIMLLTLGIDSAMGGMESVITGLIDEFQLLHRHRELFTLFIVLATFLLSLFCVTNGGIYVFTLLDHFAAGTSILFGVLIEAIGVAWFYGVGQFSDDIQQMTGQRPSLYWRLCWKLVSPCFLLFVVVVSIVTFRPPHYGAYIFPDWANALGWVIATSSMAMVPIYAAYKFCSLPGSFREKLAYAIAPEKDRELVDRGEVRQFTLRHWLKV
T3 sequence (P31645 whole entry): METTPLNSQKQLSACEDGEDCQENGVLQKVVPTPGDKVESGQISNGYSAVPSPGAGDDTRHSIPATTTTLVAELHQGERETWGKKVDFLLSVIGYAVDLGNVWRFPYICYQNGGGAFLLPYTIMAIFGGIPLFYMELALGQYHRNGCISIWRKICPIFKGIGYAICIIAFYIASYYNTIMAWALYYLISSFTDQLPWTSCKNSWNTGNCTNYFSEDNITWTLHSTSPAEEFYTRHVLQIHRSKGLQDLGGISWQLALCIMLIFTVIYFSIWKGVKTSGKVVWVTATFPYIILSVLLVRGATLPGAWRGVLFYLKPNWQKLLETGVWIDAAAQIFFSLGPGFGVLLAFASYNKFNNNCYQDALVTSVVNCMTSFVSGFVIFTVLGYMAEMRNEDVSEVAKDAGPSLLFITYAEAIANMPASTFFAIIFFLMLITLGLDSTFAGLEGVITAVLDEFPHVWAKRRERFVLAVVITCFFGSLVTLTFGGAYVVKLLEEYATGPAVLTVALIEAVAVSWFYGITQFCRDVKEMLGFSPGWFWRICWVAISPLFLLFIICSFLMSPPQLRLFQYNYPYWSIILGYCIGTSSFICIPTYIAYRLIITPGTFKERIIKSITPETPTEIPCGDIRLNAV

The term Ki denotes a dissociation constant, usually derived from enzyme kinetics or from competition with a known ligand. Broadly, the EC50 is the concentration that produces a half-maximal response. As to `COc1cc(CC(C)N)c(OC)cc1C` (single isomer, unassigned; (-)) [DOM, (-)2,5-dimethoxy-4-methylamphetamine, reference compound], the Ki at hDAT [1] (read-out: Inhibition of [^125I]RTI-55 binding Ki, hDAT, mean ± sem, HEK-hDAT) is above 100 µM; at hSERT [3] (read-out: Inhibition of [^125I]RTI-55 binding Ki, hSERT, mean ± sem, HEK-hSERT) it was above 100000 nM; on hNET [5] (read-out: Inhibition of [^125I]RTI-55 binding Ki, hNET, mean ± sem, HEK-hNET), above 100 µM; at human 5-HT1A receptor [6] (read-out: Inhibition of radioligand binding Ki, 5-HT1A [^3H]8OH-DPAT, mean ± sem, recombinant human 5-HT1A in HEK cells, agonist radioligand), 3.66 ± 0.47 µM; on 5-HT2A receptor [10] (read-out: Inhibition of radioligand binding Ki, 5-HT2A [^125I]DOI), 18.3 nM. The “% maximum stimulation, 5-HT2A stimulation of IP-1 formation” value at 5-HT2A receptor [2] is recorded as 39.9 ± 5.4 (3) 94.6 ± 4.1%. In addition, the EC50 is 39.9 nM at 5-HT2A receptor [2] (read-out: EC50, 5-HT2A stimulation of IP-1 formation); 145 ± 47 nM at 5-HT2B receptor [4] (read-out: EC50, 5-HT2B stimulation of IP-1 formation, mean ± sem); above 100 µM on hSERT [7] (read-out: Drug-induced release of [^3H]neurotransmitter EC50, hSERT [^3H]5-HT, mean ± sem, HEK-hSERT); 12.8 ± 4.7 µM at human 5-HT1A receptor [8] (read-out: EC50, 5-HT1A stimulation of [^35S]GTPγS binding, mean ± sem); above 100 µM on hDAT [9] (read-out: Drug-induced release of [^3H]neurotransmitter EC50, hDAT [^3H]DA, mean ± sem, HEK-hDAT); above 42 µM on hNET [11] (read-out: Drug-induced release of [^3H]neurotransmitter EC50, hNET [^3H]NE, mean ± sem, HEK-hNET). The “% maximum stimulation, 5-HT2B stimulation of IP-1 formation” value at 5-HT2B receptor [4] (setting [16]) amounted to 96.2 ± 3.2%. The “% maximum release, hSERT [^3H]5-HT” value at hSERT [7] came out at 2.9 ± 3.4%. Further, the “% maximum stimulation, 5-HT1A stimulation of [^35S]GTPγS binding” value on human 5-HT1A receptor [8] (setting [16]) was 74 ± 25%. The “% maximum release, hDAT [^3H]DA” value at hDAT [9] is −0.20 ± 0.16%. In addition, the “% maximum release, hNET [^3H]NE” value at hNET [11] is 25.5 ± 2.0%.

A word on the IC50: it is the concentration at which inhibition is half-maximal. A lower IC50 goes with inhibition by little substance. `NCCc1c[nH]c2ccc(O)cc12` [5-HT, Serotonin hydrochloride, reference compound]: the values for the Ki on hDAT [1] and at hNET [5] were 375 ± 83 µM and 392 ± 10 µM, respectively. Also, the half-maximal inhibitory concentration (IC50) at hNET [12] is 7.2 ± 2.5 µM; on hDAT [13], 3.36 ± 0.32 µM.

In the case of `COc1cc(CCNCc2ccccc2OC)c(OC)cc1C` [25D-NBOMe, 2-(2,5-dimethoxy-4-methylphenyl)-N-(2-methoxybenzyl)ethanamine], the Ki at hDAT [1] stood at 34.5 ± 4.2 µM; on hSERT [3], 1780 ± 280 nM; at hNET [5], 6.7 ± 1.3 µM; at 5-HT2B receptor [15] it was 2.05 ± 0.49 nM; on human 5-HT1A receptor [6] it was 4.51 ± 0.73 µM; on 5-HT2A receptor [10] it was 0.22 ± 0.026 nM. Further, the EC50 at 5-HT2A receptor [2] (EC50, 5-HT2A stimulation of IP-1 formation, mean ± sem) is 1.53 ± 0.1 nM; on 5-HT2B receptor [4], 32.3 ± 6.8 nM; on 5-HT2C receptor, 1.37 ± 0.36 nM; on hSERT [7], above 100 µM; on human 5-HT1A receptor [8] it was 5.9 ± 1.9 µM; on hDAT [9], above 100 µM. Also, the half-maximal effective concentration (EC50) on hNET [11] is above 33 µM. The “Selectivity (functional ratios) 5-HT2A: 5-HT1A” value at 5-HT2A receptor [2] (ratio of EC50 values) came to 3900. The “Selectivity (functional ratios) 5-HT2A: 5-HT2B” value at 5-HT2A receptor [2] (ratio of EC50 values) was 21. Besides, the “Selectivity (functional ratios) 5-HT2A: 5-HT2C” value at 5-HT2A receptor [2] (ratio of EC50 values) is 0.90. In addition, the Emax on 5-HT2A receptor [2] (read-out: % maximum stimulation, 5-HT2A stimulation of IP-1 formation) was 95.1%; on 5-HT2B receptor [4] (read-out: % maximum stimulation, 5-HT2B stimulation of IP-1 formation), 47.7%; on 5-HT2C receptor (read-out: % maximum stimulation, 5-HT2C stimulation of IP-1 formation), 96.1%; on human 5-HT1A receptor [8] (read-out: % maximum stimulation, 5-HT1A stimulation of [^35S]GTPγS binding), 55%. For the same compound, the 50% inhibitory concentration (IC50) was 1020 ± 78 nM on hSERT [14], 1.17 ± 0.14 µM against hNET [12] and above 85 µM at hDAT [13]. The “% maximum release, hSERT [^3H]5-HT” value on hSERT [7] was 0.59 ± 0.24%. In addition, on hDAT [9], the “% maximum release, hDAT [^3H]DA” value amounted to 0.75 ± 0.48%. The “Selectivity (binding ratios) 5-HT2A : 5-HT1A” value on 5-HT2A receptor [10] (ratio of Ki values) was 20500. Further, the “Selectivity (binding ratios) 5-HT2A : 5-HT2B” value on 5-HT2A receptor [10] (ratio of Ki values) came out at 9.3. The “Selectivity (binding ratios) 5-HT2A : 5-HT2C” value at 5-HT2A receptor [10] (ratio of Ki values) is recorded as 3.1. On hNET [11], the “% maximum release, hNET [^3H]NE” value came to 14.3 ± 8.5%.

These data come from paper PMC6298744 (Biochemical pharmacology, 2018).
